Our source for the kon, koff and Kd values is paper PMC10298926, “Biophysical Characterization of the Binding Mechanism between the MATH Domain of SPOP and Its Physiological Partners” (International Journal of Molecular Sciences, 2023).

Test [1] addresses T1, SPOP MATH WT (Homo sapiens, UniProt O43791). Put plainly: Stopped-flow pseudo-first-order binding kinetics. Particulars: 298 K; for kon: stopped-flow, 2 µM MATH domain, dansylated peptide 2 to 10 µM (Puc, MacroH2A) or 2 to 40 µM (PTEN), 50 mM sodium-HEPES, pH 7.2 (for ionic strength series), five traces averaged, slope of kobs vs peptide. As for the experimental part:
(§1) To infer the mechanism of recognition of SPOP MATH, we resorted to performing time-resolved kinetic experiments. SPOP MATH was rapidly mixed with increasing concentrations of dansylated peptides (from 2 to 10 µM for Puc and MacroH2A, and from 2 to 40 µM for PTEN) in a stopped-flow apparatus at 298 K. The binding traces obtained by monitoring the time-resolved fluorescence were satisfactorily fitted to a single exponential equation, allowing calculating the observed rate constants kobs at different peptide concentrations. We then plotted the kobs values over the concentration of dansylated peptide and fitted the data to a simple linear function equation: kobs=kon Peptide+koff where kobs is the observed rate constant; kon and koff are the microscopic association and dissociation rate constants, respectively (Figure 2). The slope and y-axis intercept represent the microscopic association and dissociation rate constant, respectively. To minimize the error associated with the indirect measurement of the dissociation rate constant, we carried out displacement experiments to determine the koff values. The displacement experiments were designed by mixing the preformed complex SPOP MATH-dansylated peptides with a high excess of nondansylated peptide, as described in the Section 4. […] On the basis of these observations, it is possible to conclude that, in the case of binding to MacroH2A and PTEN, there is the presence of an additional step, which escapes detection by stopped-flow experiments and is likely to be negligible in the case of Puc. […] We note that such a case closely resembles the presence of a so-called burst phase, which is frequently observed in protein-folding studies.
Binding kinetic experiments were performed on an Applied Photophysics DX-17MV stopped-flow apparatus (Applied Photophysics, Leatherhead, UK). Pseudo-first-order binding experiments were performed by mixing a constant concentration (2 μM) of MATH domain with increasing dansylated peptides concentrations, from 2 to 10 μM of Puc and MacroH2A, and 2 to 40 µM of PTEN. The samples were excited at 280 nm, and the emission fluorescence was recorded by using a bandpass 320 nm cutoff filter. The experiments were performed at 298 K. For ionic strength dependence with Puc and MacroH2A, the buffers used were 50 mM sodium-HEPES, pH 7.2, supplemented with 50 mM, 100 mM, 200 mM, or 500 mM of sodium chloride (NaCl). For the PTEN binding salt dependence experiments, lower concentrations of salt were added for the previous buffer list mentioned (10 mM, 25 mM, and 50 mM of sodium chloride). For each acquisition, five traces were collected, averaged, and satisfactorily fitted to a single exponential equation.

In test [2] the target is T1, SPOP MATH WT. Put plainly: Stopped-flow displacement. It is filed as binding. The following applies: preincubated complex (both 8 µM) mixed with 50 μM nondansylated peptide, 298 K, average of five single traces. Here is the method:
as §1
Microscopic dissociation rate constants (koff) were directly measured by performing displacement experiments on an Applied Photophysics DX-17MV stopped-flow apparatus (Applied Photophysics). […] The samples were excited at 280 nm and fluorescence emission was collected by using a 330 ± 30 nm bandpass filter. […] The observed rate constants were calculated from the average of five single traces. […]
Target sequence in this assay (O43791 1-182): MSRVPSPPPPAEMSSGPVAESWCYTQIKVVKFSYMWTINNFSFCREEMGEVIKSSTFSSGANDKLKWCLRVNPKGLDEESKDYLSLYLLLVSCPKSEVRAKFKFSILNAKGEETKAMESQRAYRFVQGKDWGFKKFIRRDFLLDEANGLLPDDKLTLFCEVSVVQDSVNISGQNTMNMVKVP

In test [3] the target is T1, SPOP MATH WT. Put plainly: Equilibrium binding, FRET (Trp to dansyl), fluorescence titration. The following applies: read-out: Equilibrium KD; dansylated peptide 0 to 40 µM; constant SPOP MATH WT (2 µM in methods, 1 µM in results); excitation 280 nm, emission 300-400 nm; 298 K; hyperbolic fit. The source says:
The MATH domain of SPOP exerts its functions by specifically recognizing different substrates and, therefore, acting as an adaptor module between SPOP and its physiological ligands. In an effort to provide a complete characterization of SPOP MATH binding mechanisms, we investigated the recognition of three peptides mimicking a specific region of the substrates Puc (region 96–105), MacroH2A (region 166–179), and PTEN (region 354–368). […] Moreover, the three-dimensional structure of SPOP MATH in complexes with each of the peptides has been previously reported (3HQH, 3HQL, and 4OV1 PDB entries, respectively). Similar to previous work on other protein–protein recognition modules, we employed peptides carrying a covalently attached N-terminal dansyl fluorophore. Binding was then followed by measuring the FRET (Forster resonance energy transfer) between the three tryptophan residues of the SPOP MATH domain (donor) and the dansyl group of the peptides (acceptor).
To address the equilibrium binding affinity of SPOP MATH and its substrates, a fixed concentration of the protein (1 µM) was challenged with increasing peptide concentrations. In all cases, the fluorescence-monitored transition returned a hyperbolic behavior as described in the Section 4, which allowed estimating a dissociation constant of 1.4 ± 0.4 µM, 1.6 ± 0.2 µM, and 5.5 ± 0.5 µM for Puc, MacroH2A, and PTEN, respectively (Figure 2). These values appear partly consistent with what was previously reported by Zhuang et al. by using surface plasmon resonance. […]
Equilibrium binding experiments were performed on a Fluoromax-4 single-photon-counting spectrofluorometer (Jobin-Yvon, Newark, NJ, USA). The SPOP MATH domain was excited at 280 nm and emission spectra were recorded between 300 and 400 nm, at increasing dansylated peptide concentrations. […]

Test [4] has as its target engineered MATH domain of SPOP (Speckle-type POZ protein), residues 1-182, cysteine residues substituted to serine (UniProt O43791). The test is described as follows: stopped-flow fluorescence displacement; preincubated complex of MATH domain and dansylated peptide (both 8 µM) mixed with an excess of nondansylated peptide (50 µM); 298 K; same buffer as the binding experiments; single exponential decay gives koff.

Test [5] shares this target. Put plainly: stopped-flow fluorescence binding kinetics; pseudo-first-order; 2 µM MATH mixed with dansylated peptide, 2 to 10 µM Puc and MacroH2A, 2 to 40 µM PTEN; excitation 280 nm; 298 K; kobs against peptide concentration fitted to a line, kon from the slope.
The target is the same in test [6]. Put plainly: other fluorescence titration; equilibrium; FRET from the tryptophans of SPOP MATH (excited at 280 nm, emission 300-400 nm) to the dansyl of the peptide; MATH at constant concentration (2 µM in the methods, 1 µM in the results), dansylated peptide 0 to 40 µM; 298 K; hyperbolic fit.
Test [7] shares this target. The test is described as follows: stopped-flow fluorescence binding kinetics + other: stopped-flow fluorescence displacement; KD calculated by combining kon of the pseudo-first-order plots with koff of the displacement experiments; 298 K.

Where a SMILES comes first, the peptide text is derived from it. Where no end group is shown, it is not given here. The star is where a group is joined. Dansyl = CN(C)c1cccc2c(S(=O)(=O)*)cccc12

For the molecule `C[C@H](NC(=O)[C@H](C)NC(=O)[C@H](CCCCN)NS(=O)(=O)c1cccc2c(N(C)C)cccc12)C(=O)N[C@@H](CO)C(=O)N[C@@H](C)C(=O)N[C@@H](CC(=O)O)C(=O)N[C@@H](CO)C(=O)N[C@H](C(=O)N[C@H](C(=O)N[C@@H](CCC(=O)O)C(=O)NCC(=O)N[C@H](C(=O)N1CCC[C@H]1C(=O)N[C@@H](C)C(=O)N[C@@H](CC(=O)O)C(=O)O)[C@@H](C)O)[C@@H](C)O)[C@@H](C)O` [MacroH2A] (HELM PEPTIDE1{[CN(C)c1cccc2c(S(=O)(=O)[*:2])cccc12].K.A.A.S.A.D.S.T.T.E.G.T.P.A.D}$$$$V2.0), the kon – broadly, the second-order rate constant of association – on SPOP MATH WT [1] was 3e+06 ± 2e+06 M⁻¹ s⁻¹. The dissociation rate constant (koff) (in general, a measure of how fast the partners let go of each other) at SPOP MATH WT [2] was 21 ± 2 s⁻¹. Moreover, the Kd (commonly the constant that tells how readily two partners part at equilibrium) at SPOP MATH WT [3] turned out to be 1.6 ± 0.2 µM.
For the molecule `CC(C)[C@H](NC(=O)[C@H](CO)NC(=O)[C@@H](NC(=O)[C@H](CO)NC(=O)[C@H](CO)NC(=O)[C@H](CO)NC(=O)[C@H](C)NC(=O)[C@H](CCC(=O)O)NC(=O)[C@@H]1CCCN1C(=O)[C@H](CC(N)=O)NC(=O)[C@H](CO)NC(=O)[C@@H]1CCCN1S(=O)(=O)c1cccc2c(N(C)C)cccc12)[C@@H](C)O)C(=O)N[C@H](C(=O)N1CCC[C@H]1C(=O)N[C@@H](CC(=O)O)C(=O)O)[C@@H](C)O` [PTEN] (HELM PEPTIDE1{[CN(C)c1cccc2c(S(=O)(=O)[*:2])cccc12].P.S.N.P.E.A.S.S.S.T.S.V.T.P.D}$$$$V2.0), the Kd on SPOP MATH WT [1] (read-out: Kinetics KD, WT, from kon (pseudo-first-order) and koff (displacement)) came to 20.8 ± 0.4 µM; at SPOP MATH WT [3] it was 4 ± 1 µM. The molecule further had a kon at SPOP MATH WT [1] of 5.5e+06 ± 500000 M⁻¹ s⁻¹. The koff at SPOP MATH WT [2] worked out at 113 ± 1 s⁻¹.
Dansyl-PSNPEASSSTSVTPD [dansylated peptide mimicking PTEN (region 354-368)] showed a koff in test [4] of 113 s⁻¹. In test [5], this molecule had a kon of 5.5e+06 M⁻¹ s⁻¹. The Kd in test [6] is 5.5 µM.
Dansyl-KAASADSTTEGTPAD [dansylated peptide mimicking MacroH2A (region 166-179)] gave a koff in test [4] of 21 s⁻¹. Moreover, in test [7], the Kd is 7.8 µM. Moreover, the kon in test [5] worked out at 3e+06 M⁻¹ s⁻¹.
